The Km is the concentration of substrate that gives half-maximal velocity.

This assay relates to T1, L-methionine γ-lyase (MGL); A. fumigatus L-methioninase.
T1 construct: native extracellular enzyme purified from culture supernatant (heat treatment, Sephadex G-100); about 46 kDa on SDS-PAGE; homodimer
In words: DTNB assay of released methanethiol at […] nm, Lineweaver-Burk plot. The conditions noted are these: 0.05 M potassium phosphate pH 7.0, 0.01 mM PLP, 0.25 mM DTNB, 30 °C; read-out: apparent Km. Type of assay: biochemical, Aspergillus fumigatus.

SMILES strings stand for the structures.

On to `CSCC[C@H](N)C(=O)O` [L-methionine], for which the Km worked out at 20.6 mM.

The values are drawn from article PMC9837997, “Purification, Characterization and anticancer activity of L-methionine γ-lyase from thermo-tolerant Aspergillus fumigatus” (Microbial Cell Factories, 2023).
